Like-named read-outs stand apart in the source and are kept apart here.
Assays:
SK-OV3 cells (OV3) = assay: MTS assay, cytotoxicity, OV3; details: Homo sapiens, SK-OV-3, read-out: Cytotoxicity (IC50)
Description: (§1) The human cell lines HL60 (promyeocytic leukaemia), MDA435 (breast ductal carcinoma; ATCC reference HBT129) and MDA231 (breast adenocarcinoma; ATCC reference HBT26) were obtained from ATCC. […] SK-OV3 cells (or OV3, ATCC reference HTB77) were kindly provided by NCI (Frederick, Md.).
(§2) The cell lines HCT116, HCT15, MCF7, MDA435, MDA231, PC3, OV3, HL60R and HL60 were grown in RPMI medium, in particular supplemented with 10% fetal calf serum, in the presence of penicillin, streptomycin and fungizone in 75 cm^2 flask under 5% CO2. […] The medium was changed every 2-3 days.
(§3) Cells were plated in 96-well tissue culture plates in 200 μl medium and cultured during 24 h before to be treated with compounds dissolved in DMSO (compound concentrations at a range of 0.5 nM to 10 μM) using a Biomek 2000 or 3000 (Beckman). Controls received the same volume of DMSO (1% final volume). After a 72 h exposure, MTS reagent (Promega) was added and incubated for 3 h at 37° C. The absorbance was then monitored at 490 nm and results were expressed as the value [1-(OD490 treated/OD490 control)×100] corresponding to the percentage of inhibition of cell proliferation.

[1] = test system: HL60 (promyeocytic leukaemia); assay: MTS assay, inhibition of cell proliferation, HL60
Description: as §1, §2, §3

[2] = test system: KB (epidermoid carcinoma); assay: MTS assay, inhibition of cell proliferation, KB; details: Homo sapiens, read-out: Cytotoxicity (IC50)
Description: The human cell lines KB (epidermoid carcinoma) and HepG2 (hepatocarcinoma) were obtained from ECACC (Salisbury, UK) and grown in D-MEM medium supplemented with 10% fetal calf serum, in the presence of penicilline, streptomycine and fungizone in 75 cm^2 flask under 5% CO2.
as §3

[3] = test system: HL60R (resistant HL60 cells); assay: MTS assay, cytotoxicity, HL60R; details: Homo sapiens, read-out: Cytotoxicity (IC50)
Description: (§4) The cell lines HCT116, HCT15, MCF7, MDA435, MDA231, PC3, OV3, HL60R and HL60 were grown in RPMI medium, in particular supplemented with 10% fetal calf serum, in the presence of penicillin, streptomycin and fungizone in 75 cm^2 flask under 5% CO2.
as §3

[4] = test system: MDA231 (breast adenocarcinoma); assay: MTS assay, cytotoxicity, MDA231; details: Homo sapiens, MDA-MB-231, read-out: Cytotoxicity (IC50)
Description: as §1, §2, §3

[5] = test system: HCT116 (colon adenocarcinoma); assay: MTS assay, inhibition of cell proliferation, HCT116; details: Homo sapiens, HCT-116, read-out: Cytotoxicity (IC50)
Description: (§5) The human cell lines HCT116 (colon adenocarcinoma), PC3 (prostate adenocarcinoma) and HCT15 (colon adenocarcinoma) were obtained from ECACC (Wiltshire, UK).
as §4, §3

[6] = test system: MDA435 (breast ductal carcinoma); assay: MTS assay, cytotoxicity, MDA435; details: Homo sapiens, MDA435, read-out: Cytotoxicity (IC50)
Description: as §1, §2, §3

[7] = test system: PC3 (prostate adenocarcinoma); assay: MTS assay, cytotoxicity, PC3; details: Homo sapiens, read-out: Cytotoxicity (IC50)
Description: as §5, §4, §3

H9c2 cardiomyocytes = details: 10 or 100 nM; apoptosis induced by doxorubicin in H9c2 cells
Description: The medium was changed every 2-3 days.
H9c2 cells were plated for 24 h in 100 mm Petri dishes at 0,7×10^4 cells/cm^2. Next, the cells were washed and cultured for 12 h in glucose-free medium (Gibco, DMEM w-L-glutamine, w/o D-glucose, sodium pyruvate) supplemented with only 1% fetal calf serum. […] Cells were washed, and subsequently FACS analyses were performed.
Apoptosis was analysed by fluorescence-activated cell sorting analysis (FACS-Calibur, Becton-Dickinson Biosciences). 0,5×10^6 cells were harvested, washed with Annexin Binding Buffer (0,01 M HEPES, 0,14 M NaCl, 2,5 mM CaCl2) and labeled with annexin V (dilution 1:50) and propidium iodide (6,7 μg/ml). All assays were performed at least in triplicate, and the results were analyzed by BD Cell Quest Pro software (Becton-Dickinson Biosciences, Le Pont De Claix, France).

[8] = Homo sapiens, HL-60, read-out: Cytotoxicity (IC50)
[9] = read-out: Cytotoxicity (IC50), HL60, MTS, Table 2

Row | Structure (SMILES) | IC50 (SK-OV3 cells (OV3)) [nM] | IC50 [1, 8] [nM] | IC50 [2] [nM] | IC50 [3] [nM] | IC50 [4] [nM] | IC50 [5] [nM] | IC50 [6] [nM] | IC50 [7] [nM] | Activity for cytotoxicity and cardioprotection (FIG. 13) (H9c2 cardiomyocytes) | IC50 [1, 9] [nM]
1 | COC(=O)[C@H]1[C@@H](O)[C@@]2(O)c3ccc(OC)cc3O[C@@]2(c2ccc(Br)cc2)[C@@H]1c1ccccc1 (racemic) [FL5, Methyl 3a-(4-bromophenyl)-1,8b-dihydroxy-8-methoxy-1-oxo-3-phenyl-2,3-3a,8b-tetrahydro-cyclopenta[b]benzofuran-2-carboxylate] | 101 | 65 | 165 | 44 | 27 | 96 | 65 | 174 | – | –
2 | COc1ccc2c(c1)O[C@@]1(c3ccc(Br)cc3)[C@H](c3ccccc3)C[C@@H](O)[C@@]21O (racemic) [FL6, 3a-(4-Bromophenyl)-8-methoxy-3-phenyl-1,2,3,3a-tetrahydro-cyclopenta[b]benzofuran-1,8b(1H)-diol] | 251 | 115 | 255 | 67 | 48 | 108 | 205 | 224 | no or weak such activity | –
3 | COC(=O)[C@H]1[C@@H](O)[C@@]2(O)c3c(OC)cc(OC)cc3O[C@@]2(c2ccc(Br)cc2)[C@@H]1c1ccccc1 (racemic) [FL10, Methyl 3a-(4-bromophenyl)-1,8b-dihydroxy-6,8-dmethoxy-1-oxo-3-phenyl-2,3-3a,8b-tetrahydro-cyclopenta[b]benzofuran-2-Carboxylate] | 21 | 14 | 24 | 14 | 8.7 | 18 | 15 | 29 | – | –
4 | COC(=O)[C@H]1[C@@H](O)[C@@]2(O)c3ccc(OCCCO)cc3O[C@@]2(c2ccc(OC)cc2)[C@@H]1c1ccccc1 (racemic) [FL11] | 1460 | 1120 | 1710 | 1280 | 1070 | 1420 | 1110 | 2520 | no or weak such activity | –
5 | COc1cc(OC)c2c(c1)O[C@@]1(c3ccc(Br)cc3)[C@H](c3ccccc3)[C@@H](C(=O)N(C)C)[C@@H](O)[C@@]21O (racemic) [FL12, 3a-(4-Bromophenyl)-1,8b-dihydroxy-6,8-dimethoxy-N,N-dimethyl-1-oxo-3-phenyl-2,3-3a,8b-tetrahydro-cyclopenta[b]benzofuran-2-carboxamide] | 6.7 | 4 | 7 | 12 | 2.7 | 5.9 | 3.2 | 7.2 | – | –
6 | CNC(=O)[C@H]1[C@@H](O)[C@@]2(O)c3c(OC)cc(OC)cc3O[C@@]2(c2ccc(Br)cc2)[C@@H]1c1ccccc1 (racemic) [FL13, 3a-(4-Bromophenyl)-1,8b-dihydroxy-6,8-dimethoxy-N-methyl-1-oxo-3-phenyl-2,3-3a,8b-tetrahydro-cyclopenta[b]benzofuran-2-carboxamide] | 3.8 | 2 | 4 | 16 | 1.9 | 3.8 | 2.6 | 3.3 | – | –
7 | COc1cc(OC)c2c(c1)O[C@@]1(c3ccc(Br)cc3)[C@H](c3ccccc3)[C@@H](C(N)=O)[C@@H](O)[C@@]21O (racemic) [FL14, 3a-(4-Bromophenyl)-1,8b-dihydroxy-6,8-dimethoxy-1-oxo-3-phenyl-2,3-3a,8b-tetrahydro-cyclopenta[b]benzofuran-2-carboxamide] | 2.1 | 1 | 2 | 18 | 1 | 1.8 | 1.5 | 3.7 | – | –
8 | COc1ccc([C@@]23Oc4cc(OC)cc(OC)c4[C@]2(O)[C@H](O)C[C@H]3c2cccc(F)c2)cc1 (racemic) [FL15, 3a-(4-methoxyphenyl)-6,8-dimethoxy-3-(3-fluorophenyl)-1,2,3,3a-tetrahydro-cyclopenta[b]benzofuran-1,8b(1H)-diol] | – | – | 60 | – | – | – | – | – | – | –
9 | COC(=O)[C@H]1[C@@H](O)[C@@]2(O)c3c(OC)cc(OC)cc3O[C@@]2(c2ccc(OC)cc2)[C@@H]1c1cccc(F)c1 (racemic) [FL16, Methyl 3a-(4-methoxyphenyl)-1,8b-dihydroxy-6,8-dimethoxy-1-oxo-3-(3-fluorophenyl)-2,3-3a,8b-tetrahydro-cyclopenta[b]benzofuran-2-carboxylate] | – | – | 28 | – | – | – | – | – | – | –
10 | COc1cc(OC)c2c(c1)O[C@@]1(c3ccc(Br)cc3)[C@H](c3cccc(F)c3)[C@@H](C(N)=O)[C@@H](O)[C@@]21O (racemic) [FL18, 3a-(4-Bromophenyl)-1,8b-dihydroxy-6,8-dimethoxy-1-oxo-3-(3-fluorophenyl)-2,3-3a,8b-tetrahydro-cyclopenta[b]benzofuran-2-carboxamide] | – | – | 14 | – | – | – | – | – | – | –
11 | COc1cc(OC)c2c(c1)O[C@@]1(c3ccc(Br)cc3)[C@H](c3ccccc3)C[C@@H](OC=O)[C@@]21O (racemic) [FL19, 3a-(4-Bromophenyl)-6,8-dimethoxy-3-phenyl-1,2,3,3a-tetrahydro-cyclopenta[b]benzofuran-1,8b(1H)-diol 1-formate] | – | 7 | – | – | – | – | – | – | – | –
12 | COc1cc(OC)c2c(c1)O[C@@]1(c3ccc(Br)cc3)[C@H](c3ccccc3)C[C@@H](OC(C)=O)[C@@]21O (racemic) [FL20, 3a-(4-Bromophenyl)-6,8-dimethoxy-3-phenyl-1,2,3,3a-tetrahydro-cyclopenta[b]benzofuran-1,8b(1H)-diol 1-acetate] | – | 40 | – | – | – | – | – | – | – | –
13 | CCC(=O)O[C@@H]1C[C@@H](c2ccccc2)[C@]2(c3ccc(Br)cc3)Oc3cc(OC)cc(OC)c3[C@]12O (racemic) [FL21, 3a-(4-Bromophenyl)-6,8-dimethoxy-3-phenyl-1,2,3,3a-tetrahydro-cyclopenta[b]benzofuran-1,8b(1H)-diol 1-propionate] | – | 50 | – | – | – | – | – | – | – | –
14 | COc1cc(OC)c2c(c1)OC1(c3ccc(Br)cc3)C(c3ccccc3)CC(NC=O)C21O (stereo not drawn) [FL22, 3a-(4-Bromophenyl)-6,8-dimethoxy-8b-hydroxy-3-phenyl-1,2,3,3a-tetrahydro-cyclopenta[b]benzofuran-1,8b(1H)-formamide] | – | – | – | – | – | – | – | – | – | 44
15 | COc1cc(OC)c2c(c1)OC1(c3ccc(Br)cc3)C(c3ccccc3)CC(NC=O)C21O (stereo not drawn) [FL23, 3a-(4-Bromophenyl)-6,8-dimethoxy-8b-hydroxy-3-phenyl-1,2,3,3a-tetrahydro-cyclopenta[b]benzofuran-1,8b(1H)-formamide] | – | – | – | – | – | – | – | – | – | 2
16 | COc1cc(OC)c2c(c1)OC1(c3ccc(Br)cc3)C(c3ccccc3)CC(NS(C)(=O)=O)C21O (stereo not drawn) [FL24, 3a-(4-Bromophenyl)-6,8-dimethoxy-8b-hydroxy-3-phenyl-1,2,3,3a-tetrahydro-cyclopenta[b]benzofuran-1,8b(1H)-methanesulfonamide] | – | – | – | – | – | – | – | – | – | 580
17 | COc1cc(OC)c2c(c1)OC1(c3ccc(Br)cc3)C(c3ccccc3)CC(NS(C)(=O)=O)C21O (stereo not drawn) [FL25, 3a-(4-Bromophenyl)-6,8-dimethoxy-8b-hydroxy-3-phenyl-1,2,3,3a-tetrahydro-cyclopenta[b]benzofuran-1,8b(1H)-methanesulfonamide] | – | – | – | – | – | – | – | – | – | 16
18 | CC(=O)O[C@@]12CO[C@@H]1C[C@H](O)[C@@]1(C)C(=O)[C@H](O)C3=C(C)[C@@H](OC(=O)[C@H](O)[C@@H](NC(=O)OC(C)(C)C)c4ccccc4)C[C@@](O)([C@@H](OC(=O)c4ccccc4)[C@H]21)C3(C)C [Taxotere, reference compound] | 0.51 | 0.5 | 0.17 | 531 | 0.018 | 0.52 | 0.25 | 1.4 | – | –
19 | CC[C@]1(O)C[C@@H]2CN(CCc3c([nH]c4ccccc34)[C@@](C(=O)OC)(c3cc4c(cc3OC)N(C)[C@H]3[C@@](O)(C(=O)OC)[C@H](OC(C)=O)[C@]5(CC)C=CCN6CC[C@]43[C@@H]65)C2)C1 [Vinblastin, vinblastine, reference compound] | 2.7 | 1.11 | 0.8 | > 100 | 0.63 | 1.42 | 1.24 | 5.5 | – | –

Source: patent US20120101153A1, “ROCAGLAOL DERIVATIVES AS CARDIOPROTECTANT AGENTS AND AS ANTINEOPLASTIC AGENTS” (Universite De Strasbourg, priority 2008, published 2012)
